Our source for the IC50 values is ChEMBL document CHEMBL4265930, “Dual potent ALK and ROS1 inhibitors combating drug-resistant mutants: Synthesis and biological evaluation of aminopyridine-containing diarylaminopyrimidine derivatives” (Eur J Med Chem, 2018).

For one assay, the system named is NCI-H2228. Description: cells. The settings on record: Homo sapiens, NCI-H2228, 72 h.
The subject of another assay is A549. Description: cells. The settings on record: Homo sapiens, A549, 72 h.
The subject of a further assay is KARPAS-299. Description: cells. The settings on record: Homo sapiens, KARPAS-299, 72 h.
For another assay, the system named is HCC78. As to the kind of experiment: Antiproliferative activity against human HCC78 cells harboring SLC34A2-ROS1 after 72 hrs by MTT assay. In kind it is functional, cell-based. The settings on record: HCC78, 72 h.
For a further assay, the system named is BaF3. Description: cells. The settings on record: Mus musculus, BaF3, 72 h.
The target of assay [1] is Epidermal growth factor receptor (Homo sapiens, UniProt P00533).
Description: Inhibition of human N-terminal GST-tagged EGFR cytoplasmic domain (669 to 1210 residues) expressed in baculovirus expression system after 1 hr by mobility shift assay
For assay [2], the target named is ALK tyrosine kinase receptor (Homo sapiens, UniProt Q9UM73, G1202R).
Sequence of ALK tyrosine kinase receptor (Homo sapiens, UniProt Q9UM73, G1202R) (Q9UM73 19-1620 G1202R limits assumed): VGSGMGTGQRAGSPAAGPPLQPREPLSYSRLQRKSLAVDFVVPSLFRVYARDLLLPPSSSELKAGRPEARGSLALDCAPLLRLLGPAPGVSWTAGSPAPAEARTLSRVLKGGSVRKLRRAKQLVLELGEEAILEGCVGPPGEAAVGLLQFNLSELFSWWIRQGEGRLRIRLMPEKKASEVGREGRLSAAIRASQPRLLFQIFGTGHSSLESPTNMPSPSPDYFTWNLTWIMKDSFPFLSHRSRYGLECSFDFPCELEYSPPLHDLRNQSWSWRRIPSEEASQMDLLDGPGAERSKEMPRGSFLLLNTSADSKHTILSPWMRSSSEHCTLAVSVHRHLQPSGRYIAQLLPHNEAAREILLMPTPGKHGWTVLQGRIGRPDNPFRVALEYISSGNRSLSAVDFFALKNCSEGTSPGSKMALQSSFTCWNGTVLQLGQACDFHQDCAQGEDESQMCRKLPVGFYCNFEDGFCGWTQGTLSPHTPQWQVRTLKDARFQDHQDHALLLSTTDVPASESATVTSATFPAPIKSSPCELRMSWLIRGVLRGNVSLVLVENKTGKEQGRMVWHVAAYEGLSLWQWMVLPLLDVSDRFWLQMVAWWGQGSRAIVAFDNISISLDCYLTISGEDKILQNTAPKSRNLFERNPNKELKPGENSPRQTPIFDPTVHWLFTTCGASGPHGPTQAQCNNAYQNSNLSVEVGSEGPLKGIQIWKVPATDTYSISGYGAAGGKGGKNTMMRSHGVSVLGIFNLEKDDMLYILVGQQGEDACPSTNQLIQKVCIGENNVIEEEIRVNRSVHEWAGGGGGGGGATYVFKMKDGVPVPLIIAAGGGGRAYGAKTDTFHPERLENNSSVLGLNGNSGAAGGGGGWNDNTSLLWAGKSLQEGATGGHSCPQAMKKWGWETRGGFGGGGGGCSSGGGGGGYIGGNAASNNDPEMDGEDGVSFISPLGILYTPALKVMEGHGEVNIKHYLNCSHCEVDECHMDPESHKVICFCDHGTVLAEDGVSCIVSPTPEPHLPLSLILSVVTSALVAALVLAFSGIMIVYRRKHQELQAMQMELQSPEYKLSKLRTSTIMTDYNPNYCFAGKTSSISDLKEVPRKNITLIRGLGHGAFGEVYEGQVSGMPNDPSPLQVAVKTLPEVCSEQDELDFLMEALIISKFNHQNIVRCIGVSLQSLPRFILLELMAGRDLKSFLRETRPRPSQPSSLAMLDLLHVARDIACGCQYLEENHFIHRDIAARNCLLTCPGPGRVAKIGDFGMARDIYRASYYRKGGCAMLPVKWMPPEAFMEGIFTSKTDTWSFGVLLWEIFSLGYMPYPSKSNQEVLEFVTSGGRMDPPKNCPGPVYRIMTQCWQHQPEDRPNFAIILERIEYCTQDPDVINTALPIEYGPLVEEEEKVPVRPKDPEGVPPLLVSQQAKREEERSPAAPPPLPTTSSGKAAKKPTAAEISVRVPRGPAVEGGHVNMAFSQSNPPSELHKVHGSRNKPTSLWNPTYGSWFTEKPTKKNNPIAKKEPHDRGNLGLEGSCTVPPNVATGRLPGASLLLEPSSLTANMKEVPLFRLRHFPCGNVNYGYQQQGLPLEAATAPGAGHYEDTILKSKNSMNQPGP
Assay [3] has as its target ALK tyrosine kinase receptor (Homo sapiens, UniProt Q9UM73, L1196M).
Description: Inhibition of human N-terminal GST-tagged ALK L1196M mutant cytoplasmic domain (1058 to 1620 residues) expressed in baculovirus expression system after 1 hr by mobility shift assay
Assay [4] concerns the target Proto-oncogene tyrosine-protein kinase ROS (Homo sapiens, UniProt P08922). Description: Inhibition of human N-terminal GST-tagged ROS cytoplasmic domain (1883 to 2347 residues) expressed in baculovirus expression system after 1 hr by mobility shift assay.
Assay [5] concerns the target ALK tyrosine kinase receptor (Homo sapiens, UniProt Q9UM73).
Description: Inhibition of human N-terminal GST-tagged ALK cytoplasmic domain (1058 to 1620 residues) expressed in baculovirus expression system after 1 hr by mobility shift assay

Molecules are shown by their SMILES. Where only a bound is given, the exact number is not on record here.

Sequence of ALK tyrosine kinase receptor (Homo sapiens, UniProt Q9UM73, L1196M) (Q9UM73 19-1620 L1196M limits assumed): as the sequence (Q9UM73 19-1620 G1202R limits assumed) above, with L1178M, R1184G counted along it
Sequence of Proto-oncogene tyrosine-protein kinase ROS (P08922 whole entry, the tested form may be a part): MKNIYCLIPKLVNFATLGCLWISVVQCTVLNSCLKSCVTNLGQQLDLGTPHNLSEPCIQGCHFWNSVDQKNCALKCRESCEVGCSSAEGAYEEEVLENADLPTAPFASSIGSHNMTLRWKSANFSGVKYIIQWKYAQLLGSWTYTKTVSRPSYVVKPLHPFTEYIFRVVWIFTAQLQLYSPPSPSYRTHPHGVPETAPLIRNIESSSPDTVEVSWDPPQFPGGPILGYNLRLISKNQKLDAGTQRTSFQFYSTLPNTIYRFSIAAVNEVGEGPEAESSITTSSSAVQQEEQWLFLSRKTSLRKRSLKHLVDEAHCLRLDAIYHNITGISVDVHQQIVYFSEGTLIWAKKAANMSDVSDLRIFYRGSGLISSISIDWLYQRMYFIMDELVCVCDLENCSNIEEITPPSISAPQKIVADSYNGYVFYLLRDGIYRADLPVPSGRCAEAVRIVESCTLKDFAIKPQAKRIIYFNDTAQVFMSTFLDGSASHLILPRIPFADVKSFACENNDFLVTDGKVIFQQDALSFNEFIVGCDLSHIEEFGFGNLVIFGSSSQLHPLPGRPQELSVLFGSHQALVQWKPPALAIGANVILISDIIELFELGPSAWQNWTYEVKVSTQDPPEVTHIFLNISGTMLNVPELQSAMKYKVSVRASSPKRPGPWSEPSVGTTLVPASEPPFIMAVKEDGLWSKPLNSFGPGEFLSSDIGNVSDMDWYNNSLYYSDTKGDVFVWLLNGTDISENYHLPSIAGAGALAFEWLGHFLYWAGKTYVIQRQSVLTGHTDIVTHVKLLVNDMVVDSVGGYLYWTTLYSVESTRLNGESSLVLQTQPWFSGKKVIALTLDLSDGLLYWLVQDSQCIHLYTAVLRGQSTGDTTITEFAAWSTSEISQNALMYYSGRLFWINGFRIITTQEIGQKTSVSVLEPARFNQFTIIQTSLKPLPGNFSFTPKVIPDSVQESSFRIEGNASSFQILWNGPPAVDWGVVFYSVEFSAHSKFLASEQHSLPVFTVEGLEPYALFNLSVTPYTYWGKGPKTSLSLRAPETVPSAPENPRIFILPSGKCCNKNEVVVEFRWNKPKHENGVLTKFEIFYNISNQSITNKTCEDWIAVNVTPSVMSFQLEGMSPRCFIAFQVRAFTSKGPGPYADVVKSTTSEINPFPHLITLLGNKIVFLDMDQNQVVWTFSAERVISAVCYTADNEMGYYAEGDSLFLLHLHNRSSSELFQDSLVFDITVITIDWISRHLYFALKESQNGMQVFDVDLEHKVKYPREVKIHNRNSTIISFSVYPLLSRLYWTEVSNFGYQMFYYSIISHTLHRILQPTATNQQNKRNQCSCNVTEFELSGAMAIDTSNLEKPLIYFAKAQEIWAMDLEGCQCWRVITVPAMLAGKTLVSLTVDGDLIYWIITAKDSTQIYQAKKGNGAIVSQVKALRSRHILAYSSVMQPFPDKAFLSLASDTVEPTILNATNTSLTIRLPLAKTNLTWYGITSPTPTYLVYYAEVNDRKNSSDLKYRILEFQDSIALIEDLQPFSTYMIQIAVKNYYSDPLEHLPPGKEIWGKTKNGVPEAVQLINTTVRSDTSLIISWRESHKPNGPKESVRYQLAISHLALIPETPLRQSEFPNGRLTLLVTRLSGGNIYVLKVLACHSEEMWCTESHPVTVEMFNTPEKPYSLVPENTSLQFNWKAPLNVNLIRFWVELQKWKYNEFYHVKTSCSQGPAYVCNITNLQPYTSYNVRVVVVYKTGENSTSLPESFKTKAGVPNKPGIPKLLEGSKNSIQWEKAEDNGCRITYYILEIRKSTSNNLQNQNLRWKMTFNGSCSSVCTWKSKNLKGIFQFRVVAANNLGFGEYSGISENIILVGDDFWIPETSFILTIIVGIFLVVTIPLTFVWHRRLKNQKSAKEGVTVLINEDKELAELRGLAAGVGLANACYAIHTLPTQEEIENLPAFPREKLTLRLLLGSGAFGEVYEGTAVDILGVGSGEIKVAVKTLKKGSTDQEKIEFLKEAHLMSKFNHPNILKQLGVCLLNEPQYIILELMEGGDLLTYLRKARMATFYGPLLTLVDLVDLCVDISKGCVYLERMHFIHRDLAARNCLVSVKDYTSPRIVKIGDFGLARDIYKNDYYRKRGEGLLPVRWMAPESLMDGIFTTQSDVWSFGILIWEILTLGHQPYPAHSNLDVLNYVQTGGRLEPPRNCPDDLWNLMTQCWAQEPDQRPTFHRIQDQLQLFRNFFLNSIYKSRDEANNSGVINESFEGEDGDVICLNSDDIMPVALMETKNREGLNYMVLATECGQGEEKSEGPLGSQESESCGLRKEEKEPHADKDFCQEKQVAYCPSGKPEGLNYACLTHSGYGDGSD
Description for A549: Antiproliferative activity against human A549 cells after 72 hrs by MTT assay
Description for KARPAS-299: Antiproliferative activity against human KARPAS299 cells harboring NPM-ALK after 72 hrs by MTT assay
Description for NCI-H2228: Antiproliferative activity against human NCI-H2228 cells harboring EML4-ALK after 72 hrs by MTT assay

As usually defined, the IC50 is the concentration needed to halve the response being measured. In the case of `COc1nc(N2CCCCC2)ccc1Nc1ncc(Cl)c(Nc2ccccc2NS(=O)(=O)C2CC2)n1`, the half-maximal inhibitory concentration (IC50) in the assay with NCI-H2228 was 0.27 µM; in the assay on A549, more than 1 µM; in the assay with KARPAS-299, 0.48 µM; in the assay on HCC78 it was 0.39 µM; in the assay on BaF3, 0.63 µM.
Regarding `C/C=C/C(=O)Nc1ccccc1Nc1nc(Nc2ccc(N3CCNC(C)C3)nc2OC)ncc1Cl` (centres undefined), the concentration for half-maximal inhibition (IC50) was more than 1 µM in the assay on NCI-H2228; more than 1 µM in the assay with A549; 0.58 µM in the assay on KARPAS-299; 0.92 µM with HCC78; more than 1 µM with BaF3.
For the compound `COc1nc(N2CCNC(C)C2)ccc1Nc1ncc(Cl)c(Nc2ccccc2NS(C)(=O)=O)n1` (centres undefined), the IC50 is 0.49 µM in the assay on NCI-H2228; more than 1 µM in the assay with A549; 0.39 µM with KARPAS-299; 0.44 µM with HCC78; more than 1 µM with BaF3.
In the case of `CC(C)Sc1nc(N2CCN(C)CC2)ccc1Nc1ncc(Cl)c(Nc2ccccc2NS(C)(=O)=O)n1`, the IC50 was 0.42 µM in the assay with NCI-H2228; more than 1 µM in the assay on A549; 0.34 µM in the assay on KARPAS-299; 0.13 µM with HCC78; more than 1 µM in the assay with BaF3.
As for `CS(=O)(=O)Nc1ccccc1Nc1nc(Nc2ccc(N3CCCC3)nc2)ncc1Cl`, the IC50 is 0.48 µM with NCI-H2228; more than 1 µM in the assay on A549; 0.08 µM in the assay with KARPAS-299; 0.08 µM in the assay with HCC78; 0.74 µM in the assay on BaF3.
As to `COc1nc(N2CCN(C)CC2)ccc1Nc1ncc(Cl)c(Nc2ccccc2NS(=O)(=O)C2CC2)n1`, the IC50 with NCI-H2228 was 0.06 µM; in assay [1] it was more than 1000 µM; in the assay with A549, more than 1 µM; with KARPAS-299, 0.028 µM; in the assay on HCC78 it was 0.27 µM; in [2], 6 µM. The IC50 in the assay with BaF3 worked out at 0.09 µM; in assay [3] it was 3.9 µM; in assay [4], 4.6 µM; in assay [5], 3.9 µM.
Consider `COc1nc(N2CCCC2)ccc1Nc1ncc(Cl)c(Nc2ccccc2NS(C)(=O)=O)n1`, for which the 50% inhibitory concentration (IC50) in the assay on NCI-H2228 was 0.17 µM; in the assay on A549, 0.71 µM; in the assay with KARPAS-299 it was 0.08 µM; in the assay with HCC78 it was 0.24 µM; in the assay on BaF3, 0.13 µM.
The corresponding values for `COc1nc(N2CCCC2)ccc1Nc1ncc(Cl)c(Nc2ccccc2NS(=O)(=O)C2CC2)n1` are 0.41 µM, more than 1 µM, 0.12 µM, 0.24 µM and more than 1 µM.
For `C/C=C/C(=O)Nc1ccccc1Nc1nc(Nc2ccc(N3CCCCC3)nc2OC)ncc1Cl`, in that order: 0.36 µM, more than 1 µM, 0.08 µM, 0.21 µM and 0.23 µM.
For `COc1nc(N2CCN(CCO)CC2)ccc1Nc1ncc(Cl)c(Nc2ccccc2NS(=O)(=O)C2CC2)n1`, in that order: 0.018 µM, more than 1 µM, 0.035 µM, 0.13 µM and 0.04 µM.
For the compound `COc1nc(N2CCOCC2)ccc1Nc1ncc(Cl)c(Nc2ccccc2NS(=O)(=O)C2CC2)n1`, the IC50 is 0.09 µM in the assay on NCI-H2228; more than 1 µM in the assay on A549; 0.055 µM in the assay on KARPAS-299; 0.48 µM in the assay with HCC78; 0.17 µM with BaF3.
`COc1nc(N2CC(O)C2)ccc1Nc1ncc(Cl)c(Nc2ccccc2NS(=O)(=O)C2CC2)n1`: the IC50 in the assay on NCI-H2228 is 0.05 µM; with A549, more than 1 µM; with KARPAS-299, 0.11 µM; in the assay with HCC78, 0.09 µM; in the assay on BaF3, 0.07 µM.
With `Cc1cc(Nc2ncc(Cl)c(Nc3ccccc3S(=O)(=O)C(C)C)n2)c(OC(C)C)cc1C1CCNCC1` [CERITINIB], the IC50 is 0.026 µM in the assay with NCI-H2228, more than 1 µM with A549, 0.041 µM with KARPAS-299 and more than 1 µM with BaF3.
As to `C/C=C/C(=O)Nc1ccccc1Nc1nc(Nc2ccc(N3CCCC3)nc2OC)ncc1Cl`, the IC50 was 0.38 µM with NCI-H2228; more than 1 µM with A549; 0.22 µM with KARPAS-299; 0.16 µM in the assay on HCC78; 0.3 µM in the assay on BaF3.
For `COc1nc(N2CCN(C)CC2)ccc1Nc1ncc(Cl)c(Nc2ccccc2NC(C)=O)n1`, in that order: 0.16 µM, 0.7 µM, 0.027 µM, 0.14 µM and 0.09 µM.
For `COc1nc(N2CCSCC2)ccc1Nc1ncc(Cl)c(Nc2ccccc2NS(C)(=O)=O)n1`, the IC50 in the assay on NCI-H2228 was 0.024 µM; in assay [1], more than 1000 µM; with A549, 0.85 µM; in the assay with KARPAS-299, 0.027 µM; in the assay with HCC78 it was 0.08 µM; in [2], 7.9 µM. In addition, the IC50 in the assay with BaF3 amounted to 0.05 µM; in assay [3], 1.6 µM; in [4] it was 6.1 µM; in assay [5] it was 2.8 µM.
As to `CCN(CC)c1ccc(Nc2ncc(Cl)c(Nc3ccccc3NS(=O)(=O)C3CC3)n2)c(OC)n1`, the IC50 was 0.64 µM in the assay with NCI-H2228; more than 1 µM with A549; 0.46 µM with KARPAS-299; 0.26 µM in the assay with HCC78; 0.12 µM in the assay with BaF3.
As to `CC(C)Oc1nc(N2CCN(C)CC2)ccc1Nc1ncc(Cl)c(Nc2ccccc2NS(C)(=O)=O)n1`, the half-inhibitory concentration (IC50) with NCI-H2228 is 0.046 µM; in [1], more than 1000 µM; in the assay with A549, 0.88 µM; with KARPAS-299 it was 0.018 µM; in the assay on HCC78, 0.26 µM; in [2], 9.4 µM. Moreover, the IC50 was determined as 0.88 µM in the assay with BaF3, 4.8 µM in assay [3], 2 µM in assay [4] and 4.2 µM in assay [5].
Consider `C/C=C/C(=O)Nc1ccccc1Nc1nc(Nc2ccc(N3CCN(C)CC3)nc2OC)ncc1Cl`, for which the IC50 was 0.27 µM in the assay on NCI-H2228; more than 1 µM in the assay with A549; 0.072 µM in the assay with KARPAS-299; 0.41 µM in the assay on HCC78; 0.11 µM in the assay with BaF3.
Consider `CCN1CCN(c2ccc(Nc3ncc(Cl)c(Nc4ccccc4NS(C)(=O)=O)n3)c(OC)n2)CC1`, for which the IC50 in the assay on NCI-H2228 was 0.95 µM; in the assay on A549, more than 1 µM; in the assay on KARPAS-299, 0.88 µM; in the assay with HCC78 it was 0.74 µM; in the assay on BaF3, more than 1 µM.
Consider `COc1nc(N2CCCCC2)ccc1Nc1ncc(Cl)c(Nc2ccccc2NS(C)(=O)=O)n1`, for which the 50% inhibitory concentration (IC50) is 0.13 µM in the assay on NCI-H2228; more than 1 µM in the assay on A549; 0.04 µM with KARPAS-299; 0.19 µM in the assay with HCC78; 0.33 µM with BaF3.
Turning to `CC(C)Sc1nc(N2CCCC2)ccc1Nc1ncc(Cl)c(Nc2ccccc2NS(C)(=O)=O)n1`, the IC50 is 0.98 µM in the assay with NCI-H2228; more than 1 µM in the assay on A549; 0.75 µM with KARPAS-299; 0.32 µM with HCC78; more than 1 µM in the assay on BaF3.
For `CN1CCN(c2ccc(Nc3ncc(Cl)c(Nc4ccccc4NS(C)(=O)=O)n3)cn2)CC1`, the IC50 with NCI-H2228 was 0.08 µM; in the assay with A549, 0.85 µM; in the assay with KARPAS-299, 0.04 µM; in the assay on HCC78, 0.07 µM; in the assay on BaF3 it was 0.78 µM.
The corresponding values for `CCN(CC)c1ccc(Nc2ncc(Cl)c(Nc3ccccc3NS(C)(=O)=O)n2)c(OC)n1` are 0.36 µM, more than 1 µM, 0.06 µM, 0.31 µM and 0.18 µM.
With `CN1CCN(c2ccc(Nc3ncc(Cl)c(Nc4ccccc4NS(=O)(=O)C4CC4)n3)cn2)CC1`, the IC50 was 0.14 µM in the assay with NCI-H2228; more than 1 µM with A549; 0.06 µM in the assay on KARPAS-299; 0.09 µM with HCC78; 0.44 µM in the assay with BaF3.
In the case of `COc1nc(N2CCN(CCO)CC2)ccc1Nc1ncc(Cl)c(Nc2ccccc2NS(C)(=O)=O)n1`, the IC50 in the assay with NCI-H2228 is 0.07 µM; in assay [1] it was more than 1000 µM; in the assay on A549 it was more than 1 µM; in the assay with KARPAS-299 it was 0.038 µM; with HCC78, 0.11 µM; in assay [2], 7.8 µM. Besides, the IC50 with BaF3 is 0.09 µM; in [3], 2.2 µM; in [4], 3.4 µM; in assay [5] it was 3.2 µM.
In the case of `CC(C)Oc1nc(N2CCCC2)ccc1Nc1ncc(Cl)c(Nc2ccccc2NS(C)(=O)=O)n1`, the half-inhibitory concentration (IC50) with NCI-H2228 worked out at 0.41 µM; in the assay with A549 it was 0.82 µM; in the assay on KARPAS-299, 0.31 µM; in the assay with HCC78 it was 0.09 µM; in the assay on BaF3, 0.85 µM.
Regarding `COc1nc(N2CC(O)C2)ccc1Nc1ncc(Cl)c(Nc2ccccc2NS(C)(=O)=O)n1`, the 50% inhibitory concentration (IC50) in the assay on NCI-H2228 is 0.042 µM; in assay [1] it was more than 1000 µM; in the assay with A549, more than 1 µM; in the assay with KARPAS-299, 0.06 µM; in the assay with HCC78, 0.035 µM; in assay [2] it was 5.2 µM. In addition, the IC50 in the assay on BaF3 is 0.032 µM; in assay [3], 2 µM; in assay [4] it was 1.6 µM; in assay [5], 1.4 µM.
